Reference: ChEMBL document CHEMBL5038625, “Application of the dual-tail approach for the design and synthesis of novel Thiopyrimidine-Benzenesulfonamide hybrids as selective carbonic anhydrase inhibitors” (Eur J Med Chem, 2022)

How the values were obtained:
[1] = target: Carbonic anhydrase 9 (Homo sapiens, UniProt Q16790); assay: Inhibition of human CA9 preincubated for 15 mins by phenol red dye based stopped flow CO2 hydration assay
[2] = test system: SF-539; assay: Antiproliferative activity against human SF-539 cells assessed as cell growth inhibition at 10 uM incubated for 24 hrs by sulforhodamine B assay; type: functional; conditions: read-out: GI
[3] = test system: CCRF-CEM; assay: Antiproliferative activity against human CCRF-CEM cells assessed as cell growth inhibition at 10 uM incubated for 24 hrs by sulforhodamine B assay; type: functional; conditions: read-out: GI
[4] = test system: HL-60; assay: Antiproliferative activity against human HL-60 cells assessed as cell growth inhibition at 10 uM incubated for 24 hrs by sulforhodamine B assay; type: functional; conditions: read-out: GI
[5] = test system: RPMI-8226; assay: Antiproliferative activity against human RPMI-8226 cells assessed as cell growth inhibition at 10 uM incubated for 24 hrs by sulforhodamine B assay; type: functional; conditions: read-out: GI
[6] = test system: SR; assay: Antiproliferative activity against human SR cells assessed as cell growth inhibition at 10 uM incubated for 24 hrs by sulforhodamine B assay; type: functional; conditions: read-out: GI
[7] = test system: A549; assay: Antiproliferative activity against human A549 cells assessed as cell growth inhibition at 10 uM incubated for 24 hrs by sulforhodamine B assay; type: functional; conditions: read-out: GI
[8] = test system: HOP-62; assay: Antiproliferative activity against human HOP-62 cells assessed as cell growth inhibition at 10 uM incubated for 24 hrs by sulforhodamine B assay; type: functional; conditions: read-out: GI
[9] = test system: NCI-H226; assay: Antiproliferative activity against human NCI-H226 cells assessed as cell growth inhibition at 10 uM incubated for 24 hrs by sulforhodamine B assay; type: functional; conditions: read-out: GI
[10] = Antiproliferative activity against human […] cells assessed as cell growth inhibition at 10 uM incubated for 24 hrs by sulforhodamine B assay; type: functional; conditions: read-out: GI
[11] = test system: HCC 2998; assay: Antiproliferative activity against human HCC 2998 cells assessed as cell growth inhibition at 10 uM incubated for 24 hrs by sulforhodamine B assay; type: functional; conditions: read-out: GI
[12] = test system: HCT-116; assay: Antiproliferative activity against human HCT-116 cells assessed as cell growth inhibition at 10 uM incubated for 24 hrs by sulforhodamine B assay; type: functional; conditions: read-out: GI
[13] = test system: HCT-15; assay: Antiproliferative activity against human HCT-15 cells assessed as cell growth inhibition at 10 uM incubated for 24 hrs by sulforhodamine B assay; type: functional; conditions: read-out: GI
[14] = test system: HT-29; assay: Antiproliferative activity against human HT-29 cells assessed as cell growth inhibition at 10 uM incubated for 24 hrs by sulforhodamine B assay; type: functional; conditions: read-out: GI
[15] = test system: SW-620; assay: Antiproliferative activity against human SW-620 cells assessed as cell growth inhibition at 10 uM incubated for 24 hrs by sulforhodamine B assay; type: functional; conditions: read-out: GI
[16] = test system: U-251; assay: Antiproliferative activity against human U-251 cells assessed as cell growth inhibition at 10 uM incubated for 24 hrs by sulforhodamine B assay; type: functional; conditions: read-out: GI
[17] = test system: LOX IMVI; assay: Antiproliferative activity against human LOX IMVI cells assessed as cell growth inhibition at 10 uM incubated for 24 hrs by sulforhodamine B assay; type: functional; conditions: read-out: GI
[18] = test system: Malme-3M; assay: Antiproliferative activity against human Malme-3M cells assessed as cell growth inhibition at 10 uM incubated for 24 hrs by sulforhodamine B assay; type: functional; conditions: read-out: GI
[19] = test system: M14; assay: Antiproliferative activity against human M14 cells assessed as cell growth inhibition at 10 uM incubated for 24 hrs by sulforhodamine B assay; type: functional; conditions: read-out: GI
[20] = test system: SK-MEL-2; assay: Antiproliferative activity against human SK-MEL-2 cells assessed as cell growth inhibition at 10 uM incubated for 24 hrs by sulforhodamine B assay; type: functional; conditions: read-out: GI
[21] = test system: SK-MEL-5; assay: Antiproliferative activity against human SK-MEL-5 cells assessed as cell growth inhibition at 10 uM incubated for 24 hrs by sulforhodamine B assay; type: functional; conditions: read-out: GI
[22] = test system: UACC-257; assay: Antiproliferative activity against human UACC-257 cells assessed as cell growth inhibition at 10 uM incubated for 24 hrs by sulforhodamine B assay; type: functional; conditions: read-out: GI
[23] = test system: IGROV-1; assay: Antiproliferative activity against human IGROV-1 cells assessed as cell growth inhibition at 10 uM incubated for 24 hrs by sulforhodamine B assay; type: functional; conditions: read-out: GI
[24] = test system: OVCAR-3; assay: Antiproliferative activity against human OVCAR-3 cells assessed as cell growth inhibition at 10 uM incubated for 24 hrs by sulforhodamine B assay; type: functional; conditions: read-out: GI
[25] = test system: OVCAR-8; assay: Antiproliferative activity against human OVCAR-8 cells assessed as cell growth inhibition at 10 uM incubated for 24 hrs by sulforhodamine B assay; type: functional; conditions: read-out: GI
[26] = test system: ACHN; assay: Antiproliferative activity against human ACHN cells assessed as cell growth inhibition at 10 uM incubated for 24 hrs by sulforhodamine B assay; type: functional; conditions: read-out: GI
[27] = test system: RXF 393; assay: Antiproliferative activity against human RXF 393 cells assessed as cell growth inhibition at 10 uM incubated for 24 hrs by sulforhodamine B assay; type: functional; conditions: read-out: GI
[28] = test system: SN12C; assay: Antiproliferative activity against human SN12C cells assessed as cell growth inhibition at 10 uM incubated for 24 hrs by sulforhodamine B assay; type: functional; conditions: read-out: GI
[29] = test system: MCF7; assay: Antiproliferative activity against human MCF7 cells assessed as cell growth inhibition at 10 uM incubated for 24 hrs by sulforhodamine B assay; type: functional; conditions: read-out: GI
[30] = test system: BT-549; assay: Antiproliferative activity against human BT-549 cells assessed as cell growth inhibition at 10 uM incubated for 24 hrs by sulforhodamine B assay; type: functional; conditions: read-out: GI
[31] = test system: T47D; assay: Antiproliferative activity against human T47D cells assessed as cell growth inhibition at 10 uM incubated for 24 hrs by sulforhodamine B assay; type: functional; conditions: read-out: GI
[32] = test system: MCF7; assay: Antiproliferative activity against human MCF7 cells assessed as reduction in cell viability incubated for 24 hrs by sulforhodamine B assay; type: functional, cell-based; conditions: MCF7, 24 h
[33] = test system: HCT-116; assay: Antiproliferative activity against human HCT-116 cells assessed as reduction in cell viability incubated for 24 hrs by sulforhodamine B assay; conditions: HCT-116, 24 h
[34] = test system: HT-29; assay: Antiproliferative activity against human HT-29 cells assessed as reduction in cell viability incubated for 24 hrs by sulforhodamine B assay; conditions: HT-29, 24 h
[35] = test system: SW-620; assay: Antiproliferative activity against human SW-620 cells assessed as reduction in cell viability incubated for 24 hrs by sulforhodamine B assay; conditions: SW-620, 24 h
[36] = test system: A549; assay: Antiproliferative activity against human A549 cells assessed as reduction in cell viability incubated for 24 hrs by sulforhodamine B assay; conditions: A549, 24 h
[37] = test system: SK-OV-3; assay: Antiproliferative activity against human SK-OV-3 cells assessed as reduction in cell viability incubated for 24 hrs by sulforhodamine B assay; conditions: SK-OV-3, 24 h
[38] = test system: MCF7; assay: Cell cycle arrest in human MCF7 cells assessed as accumulation at G2 phase incubated for 48 hrs by propidium iodide staining based flow cytometric analysis (reference value: 20.73 %); type: functional
[39] = test system: MDA-MB-231; assay: Cell cycle arrest in human MDA-MB-231 cells assessed as accumulation at sub G1 phase incubated for 48 hrs by propidium iodide staining based flow cytometric analysis (reference value: 0.2 %); type: functional
[40] = test system: MCF7; assay: Induction of apoptosis in human MCF cells assessed as late apoptotic cells measured after 48 hrs by Annexin-V-FITC/propidium iodide staining based flow cytometry (reference value: 0.82%); type: functional
[41] = test system: MDA-MB-231; assay: Induction of apoptosis in human MDA-MB-231 cells assessed as early apoptotic cells measured after 48 hrs by Annexin-V-FITC/propidium iodide staining based flow cytometry (reference value: 0.02%); type: functional

COc1ccc(OC)c(-c2nc(SCC(=O)c3ccc(Br)cc3)nc(Nc3ccc(S(N)(=O)=O)cc3)c2C#N)c1
Ki [1]: 0.0868 µM | inhibition of growth at 10 µM [2]: 71.6% | inhibition of growth at 10 µM [3]: 64.7% | inhibition of growth at 10 µM [4]: 74.1% | inhibition of growth at 10 µM [5]: 48.8% | inhibition of growth at 10 µM [6]: 86.1% | inhibition of growth at 10 µM [7]: 32.5% | inhibition of growth at 10 µM [8]: 51.6% | inhibition of growth at 10 µM [9]: 50% | inhibition of growth at 10 µM [10]: 18.4% | inhibition of growth at 10 µM [11]: 29.1% | inhibition of growth at 10 µM [12]: 84.6% | inhibition of growth at 10 µM [13]: 77.9% | inhibition of growth at 10 µM [14]: 72.8% | inhibition of growth at 10 µM [15]: 64% | inhibition of growth at 10 µM [16]: 62.4% | inhibition of growth at 10 µM [17]: 67.4% | inhibition of growth at 10 µM [18]: 49.8% | inhibition of growth at 10 µM [19]: 57.5% | inhibition of growth at 10 µM [20]: 69.6% | inhibition of growth at 10 µM [21]: 44% | inhibition of growth at 10 µM [22]: 43.1% | inhibition of growth at 10 µM [23]: 45.3% | inhibition of growth at 10 µM [24]: 49.4% | inhibition of growth at 10 µM [25]: 37.2% | inhibition of growth at 10 µM [26]: 44.1% | inhibition of growth at 10 µM [27]: 82.7% | inhibition of growth at 10 µM [28]: 50.9% | inhibition of growth at 10 µM [29]: 71.1% | inhibition of growth at 10 µM [30]: 50.6% | inhibition of growth at 10 µM [31]: 28.9% | IC50 [32]: 2.5 µM | IC50 [33]: 2.5 µM | IC50 [34]: 4.3 µM | IC50 [35]: 4.5 µM | IC50 [36]: 16.5 µM | IC50 [37]: 29.9 µM | Activity [38]: 50.47% | Activity [39]: 11.52% | Activity [40]: 3.96% | Activity [41]: 0.48%
